This is an account of results in US20170166561A1, “QUINUCLIDINE COMPOUNDS FOR MODULATING ALPHA7-NICOTINIC ACETYLCHOLINE RECEPTOR ACTIVITY” (Alpharmagen, LLC, priority 2014, published 2017).

Molecules are shown by their SMILES. Structures can show the parent of a compound that is named as a salt. Where two headings read alike, the source gives them in different places.

Series [1] concerns the target rat brain nicotinic receptor (α7 NAChR, α-Bungarotoxin binding site) (Rattus norvegicus, UniProt Q05941).
Series [2] is described as follows: Metabolic stability assay in human liver microsomes (HLM; Protocols 1 and 2). In kind it is in vitro ADME. To be noted: 1 μM. The method, then: Example B4: Metabolic Stability Assays
Studies were carried out in human and rat liver microsomes (“HLM” and “RLM,” respectively). Human and rat liver microsomes were purchased from BD Gentest. DMSO stocks were prepared for the test compounds. Aliquots of the DMSO solutions were diluted to 0.5 mM by acetonitrile, then further diluted by liver microsomes/buffer to 1.5 μM. 30 μL of 1.5 μM solutions were mixed with 15 μL of 6 mM NADPH, which had been pre-warmed to 37° C., at a final test compound concentration of 1 μM. The plates were kept in a 37° C. water bath for the duration of the experiment. At each time point (0, 5, 15, 30, 45 minutes), 135 μL of acetonitrile was added into corresponding wells. After the final time point was sampled, the plates were shaken at a vibrator (IKA, MTS 2/4) for 10 min (600 rpm/min) and then centrifuged at 5594 g for 15 min (Thermo Multifuge×3R). Aliquots of the supernatant were removed, diluted 1:1 into distilled water, and analyzed by LC-MS/MS. The peak area response ratio to internal standard (PARR) of the compounds at 5, 15, 30, 45 minutes was compared to the PARR at time 0 to determine the percent of test compound remaining at each time point. Half-lives were calculated using Excel software, fitting to a single-phase exponential decay equation.
Studies were carried out in human and rat liver microsomes. Buffer solutions were prepared as follows: Buffer A: 1.0 L of 0.1 M monobasic Potassium Phosphate buffer containing 1.0 mM EDTA; Buffer B: 1.0 L of 0.1 M Dibasic Potassium Phosphate buffer containing 1.0 mM EDTA; Buffer C: 0.1 M Potassium Phosphate buffer, 1.0 mM EDTA, pH 7.4 by titrating 700 mL of buffer B with buffer A while monitoring with a pH meter.
Reference compound (Ketanserin) and test compound spiking solutions were prepared as follows: 500 μM spiking solution: add 10 μL of 10 mM DMSO stock solution into 190 μL ACN; 1.5 μM spiking solution in microsomes (0.75 mg/mL): add 1.5 μL of 500 μM spiking solution and 18.75 μL of 20 mg/mL liver microsomes into 479.75 μL of Buffer C.
NADPH stock solution (6 mM) was prepared by dissolving NADPH into buffer C.
Assay procedure: 30 μL of 1.5 μM spiking solution containing 0.75 mg/mL microsomes solution was dispensed to the wells designated for 45 min, 30 min, 15 min, 5 min, and 0 min. The plate was pre-incubated at 37° C. for 10 minutes. 15 μL of NADPH stock solution (6 mM) was added to the wells designated as Time 45, and the timer was started. At 30 min, 15 min, and 5 min, 15 μL NADPH stock solution (6 mM) was added to the wells, respectively. At the end of incubation (0 min), 135 tit of ACN containing IS was added to all the wells. Then 15 tit of NADPH stock solution (6 mM) was added to the wells designated as Time 0. After quenching, the reaction mixtures were centrifuged at 3220 g for 10 min. Following centrifugation, 50 μL of the supernatant was transferred from each well into a 96-well sample plate containing 50 μL of ultra-pure water (Millipore) for LC/MS analysis. The peak area response (PARR) ratio to internal standard of the compounds at 5, 15, 30, and 45 minutes was compared to the PARR at time 0 to determine the percent of test compound remaining at each time point. Half-lives were calculated using Excel software, fitting to a single-phase exponential decay equation.

Series [3] can be described thus: Human plasma stability (Protocols 1 and 2). In kind it is in vitro ADME. To be noted: human. The protocol: Example B6: Human Plasma Stability
Studies were carried out in human plasma. All plasma was obtained from Bioreclamation and collected on sodium heparin. Plasma was adjusted to pH 7.4. A DMSO stock was first prepared for the test compound. An aliquot of the DMSO solution was dosed into 1 mL of plasma, which had been pre-warmed to 37° C., at a final test compound concentration of 1 μM. The vials were kept in a benchtop Thermomixer® for the duration of the experiment. Aliquots (100 μL) were taken at each time point (0, 15, 30, 60, and 120 minutes) and added to 96-well plates which had been pre-filled with 300 μL of acetonitrile. Samples were stored at 4° C. until the end of the experiment. After the final time point was sampled, the plate was mixed and then centrifuged at 3,000 rpm for 10 minutes. Aliquots of the supernatant were removed, diluted 1:1 into distilled water, and analyzed by LC-MS/MS. The peak area response ratio to internal standard (PARR) of the compound at 15, 30, 60 and 120 minutes was compared to the PARR at time 0 to determine the percent of test compound remaining at each time point. Half-lives were calculated using GraphPad software, fitting to a single-phase exponential decay equation.
Studies were carried out in plasma. Plasma was prepared under approval of IRB and IACUC on sodium heparin. The pH of plasma was monitored and used within the range of pH 7.4 to pH 8.0. DMSO stocks were prepared for the test compounds. Aliquots of the DMSO solutions were diluted to 0.05 mM by 0.05 mM Sodium phosphate buffer with 0.5% BSA. Then 10 μL of 0.05 mM solutions were dosed into 90 μL of plasma in duplicates (n=2), which had been pre-warmed to 37° C., at a final test compound concentration of 5 μM. The plates were kept in a 37° C. water bath for the duration of the experiment. At each time point (0, 5, 15, 30, 45, 60, and 120 minutes), 400 μL of acetonitrile was added into corresponding wells. After the final time point was sampled, the plates were shaken at the vibrator (IKA, MTS 2/4) for 10 min (600 rpm/min) and then centrifuged at 5594 g for 15 min (Thermo Multifuge×3R). Aliquots of the supernatant were removed, diluted 1:1 into distilled water, and analyzed by LC-MS/MS. The peak area response ratio to internal standard (PARR) of the compounds at 5, 15, 30, 45, 60, and 120 minutes was compared to the PARR at time 0 to determine the percent of test compound remaining at each time point. Half-lives were calculated using Excel software, fitting to a single-phase exponential decay equation.

For the next series, the target named is T1, Human α7 NAChR (Homo sapiens, UniProt P36544).
T1 construct: TriLink (mRNA); Ecocyte Bioscience (oocytes); host or cells: Xenopus laevis oocytes injected with mRNA
T1 sequence (P36544 23-502): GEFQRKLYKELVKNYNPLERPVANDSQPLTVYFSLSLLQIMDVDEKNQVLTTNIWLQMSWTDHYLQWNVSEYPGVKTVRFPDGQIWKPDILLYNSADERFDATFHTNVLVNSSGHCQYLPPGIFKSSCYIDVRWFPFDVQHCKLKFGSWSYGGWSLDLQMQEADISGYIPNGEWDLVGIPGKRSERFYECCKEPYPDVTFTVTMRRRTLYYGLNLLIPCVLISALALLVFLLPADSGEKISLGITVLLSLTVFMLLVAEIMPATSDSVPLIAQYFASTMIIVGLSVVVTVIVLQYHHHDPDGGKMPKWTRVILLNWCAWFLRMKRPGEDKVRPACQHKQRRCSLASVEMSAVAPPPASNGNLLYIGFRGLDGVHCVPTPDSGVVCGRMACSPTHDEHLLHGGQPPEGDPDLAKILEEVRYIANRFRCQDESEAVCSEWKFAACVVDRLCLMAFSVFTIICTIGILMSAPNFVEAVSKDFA
Kind of series: Electrophysiology screen at 1 μM in Xenopus laevis oocytes. The series is classed as cell-based. To be noted: test compound 1 μM; Imax = maximal current produced by 3 mM ACh; holding voltage −70 mV. The method, then: Example B2: Electrophysiology Screen at 1 μM in Xenopus Laevis Oocytes
Human α7 NAChR mRNA Preparation:
Human α7 NAChR plasmid was prepared by GeneWiz from accession NM_000746.5. Human α7 NAChR mRNA was prepared by TriLink at a concentration near 1 μg/μL. The human α7 NAChR mRNA was diluted in sterile water to a working concentration near 10 ng/μL.
Xenopus laevis Oocyte Injection and Maintenance:
Oocytes were obtained from Xenopus laevis frogs and treated with collagenase by Ecocyte Bioscience. Oocytes were injected with the working concentration of α7 NAChR mRNA at a volume of 50 nL for a total of approximately 0.5 ng of α7 NAChR mRNA. Oocytes were maintained in Barth's solution at a temperature of 16° C. The Barth's solution was replaced daily.
Electrophysiology Measurement:
Two-electrode voltage clamp recordings were made 3-14 days following mRNA injections at a holding voltage of −70 mV. […]
In all oocyte recordings, drug and wash solutions were applied using a custom-designed microcapillary “linear array” which allows rapid application of agonists. Currents were recorded on a PC-based computer (PClamp, Molecular Devices, Sunnyvale, Calif.). […]
Stocks of test compounds were prepared in DMSO. […] The test solution was perfused onto the oocyte until a peak current was recorded. […]

The mark [4] stands for this setting: Protocol 1, human liver microsomes, NADPH, 37° C.
Where [5] appears, read: Protocol 2, plasma pH 7.4 to 8.0, 5 μM, 37° C., read-out: T1/2.

Sequence of rat brain nicotinic receptor (α7 NAChR, α-Bungarotoxin binding site) (Q05941 23-502): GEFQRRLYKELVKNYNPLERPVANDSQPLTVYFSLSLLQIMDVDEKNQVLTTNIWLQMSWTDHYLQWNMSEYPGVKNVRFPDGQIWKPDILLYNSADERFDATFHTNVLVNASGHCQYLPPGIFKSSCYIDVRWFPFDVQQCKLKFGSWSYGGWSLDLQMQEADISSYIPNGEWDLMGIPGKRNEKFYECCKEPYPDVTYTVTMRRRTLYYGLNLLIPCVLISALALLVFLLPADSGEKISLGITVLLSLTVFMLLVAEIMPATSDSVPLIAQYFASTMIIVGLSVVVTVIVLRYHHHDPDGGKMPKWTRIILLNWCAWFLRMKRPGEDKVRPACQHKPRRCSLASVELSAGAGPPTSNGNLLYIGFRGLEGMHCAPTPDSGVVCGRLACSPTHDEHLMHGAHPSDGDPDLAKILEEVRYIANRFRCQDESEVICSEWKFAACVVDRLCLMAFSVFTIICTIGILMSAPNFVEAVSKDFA

In series [1], `COc1ccc2c(C(=O)OCC34CCN(CC3)CC4)c[nH]c2c1` [Compound 10, quinuclidin-4-ylmethyl 6-methoxy-1H-indole-3-carboxylate] yielded an IC50 of 0.321 µM and a Ki of 0.279 µM.
In series [2] (human, microsomes), `Cc1cc(F)cc2[nH]cc(C(=O)OCC34CCN(CC3)CC4)c12` [Compound 44, quinuclidin-4-ylmethyl 6-fluoro-4-methyl-1H-indole-3-carboxylate] showed an HLM of 0.21 L/h/kg. In series [3] (plasma, pH 7.4), the T1/2 entry is given as “∞”.
The molecule `COc1cc2c(C(=O)OCC34CCN(CC3)CC4)c[nH]c2cc1F` [Compound 57, quinuclidin-4-ylmethyl 6-fluoro-5-methoxy-1H-indole-3-carboxylate] yielded an HLM in series [2] (setting [4]) of 0 L/h/kg. Also, the half-life at 5 μM in series [3] (setting [5]) was found to be 5.47 h.
In series [2] (setting [4]), `Cl.O=C(OCC12CCN(CC1)CC2)c1c[nH]c2cc(O)c(F)cc12` [Compound 59, Quinuclidin-4-ylmethyl 5-fluoro-6-hydroxy-1H-indole-3-carboxylate hydrochloride] yielded an HLM of 0 L/h/kg. In addition, the half-life at 5 μM in series [3] (setting [5]) is 2.27 h.
The corresponding values for `Cc1cc2[nH]cc(C(=O)OCC34CCN(CC3)CC4)c2cc1Cl.Cl` [Compound 66, quinuclidin-4-ylmethyl 5-chloro-6-methyl-1H-indole-3-carboxylate hydrochloride] are 0 L/h/kg and 5.26 h.
For `COc1cc2c(C(=O)OCC34CCN(CC3)CC4)c[nH]c2cc1Cl` [Compound 69, quinuclidin-4-ylmethyl 6-chloro 5-methoxy-1H-indole-3-carboxylate, hydrochloride], the HLM in series [2] (human, microsomes) was determined as 0.528 L/h/kg. In series [3] (plasma, pH 7.4), the half-life at 5 μM is 6.93 h.
The molecule `Cc1ccc2[nH]cc(C(=O)OCC34CCN(CC3)CC4)c2c1C` [Compound 70, quinuclidin-4-ylmethyl 4,5-dimethyl-1H-indole-3-carboxylate] registered an HLM in series [2] (human, microsomes) of 0 L/h/kg. Moreover, the half-life at 5 μM in series [3] (plasma, pH 7.4) stood at 4.16 h.
`Cc1cc2c(C(=O)OCC34CCN(CC3)CC4)c[nH]c2cc1Cl` [Compound 78, quinuclidin-4-ylmethyl 6-chloro-5-methyl-1H-indole-3-carboxylate] gave an HLM in series [2] (human, microsomes) of 0 L/h/kg. In series [3] (plasma, pH 7.4), the half-life at 5 μM is 4.77 h.
Take `COc1cc2c(C(=O)OCC34CCN(CC3)CC4)c[nH]c2cc1C.Cl` [Compound 79, quinuclidin-4-ylmethyl 5-methoxy-6-methyl-1H-indole-3-carboxylate hydrochloride]: in series [1], the IC50 came to 0.159 µM and the affinity, expressed as Ki, was 0.137 µM. In addition, the I/Imax on Human α7 NAChR is 0.259. Besides, the half-life at 5 μM in series [3] (setting [5]) came out at 2.71 h.
Molecule `Cl.O=C(OCC12CCN(CC1)CC2)c1c[nH]c2cccc(C(F)(F)F)c12` [Compound 80, Quinuclidin-4-ylmethyl 4-(trifluoromethyl)-1H-indole-3-carboxylate hydrochloride] registered an I/Imax on Human α7 NAChR of 0.032. For the same molecule, the half-life at 5 μM in series [3] (setting [5]) was 10.9 h.
`Cc1cc(O)cc2[nH]cc(C(=O)OCC34CCN(CC3)CC4)c12` [Compound 83, quinuclidin-4-ylmethyl 6-hydroxy-4-methyl-1H-indole-3-carboxylate] had an HLM in series [2] (human, microsomes) of 0.162 L/h/kg. Moreover, the half-life at 5 μM in series [3] (plasma, pH 7.4) is 6.48 h.
Regarding `COc1cc2[nH]cc(C(=O)OCC34CCN(CC3)CC4)c2cc1OC` [Compound 87, quinuclidin-4-ylmethyl 5,6-dimethoxy-1H-indole-3-carboxylate], the HLM in series [2] (setting [4]) worked out at 0.03 L/h/kg. Besides, the half-life at 5 μM in series [3] (setting [5]) worked out at 2.41 h.
